The results in this text go back to patent EP3925949A1, “AZIDO COMPOUNDS AND METHOD FOR MONITORING ACID CERAMIDASE ACTIVITY IN INTACT CELLS USING THEM” (Consejo Superior de Investigaciones Científicas (CSIC), priority 2020, dated 2021).

The target of assay [1] is T1, acid ceramidase (AC) (Homo sapiens, UniProt Q13510).
T1 sequence (Q13510 143-395 limits assumed): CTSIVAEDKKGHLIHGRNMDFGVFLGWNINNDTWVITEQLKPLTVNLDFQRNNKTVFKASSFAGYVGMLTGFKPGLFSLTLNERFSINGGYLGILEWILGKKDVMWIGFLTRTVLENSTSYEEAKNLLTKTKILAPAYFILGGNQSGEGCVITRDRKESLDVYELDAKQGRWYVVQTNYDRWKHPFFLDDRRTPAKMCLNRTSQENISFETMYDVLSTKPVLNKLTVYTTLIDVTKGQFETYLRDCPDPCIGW
T1 sequence (Q13510 22-142 limits assumed): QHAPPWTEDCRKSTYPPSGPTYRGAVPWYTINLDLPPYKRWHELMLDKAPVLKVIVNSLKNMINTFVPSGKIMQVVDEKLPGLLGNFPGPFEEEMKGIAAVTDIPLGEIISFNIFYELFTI
Briefly: Hydrolysis of RBM5-177 by lysates of AC overexpressing cells, UPLC-HRMS. The assay is classed as biochemical. Set-up: expressed in transfected cells; host or cells: A375/+Dox (overexpressing AC). To be noted: lysates from A375/+Dox cells, 30 min. As to the method:
Cells were suspended in the appropriate volume of a 0.25 M saccharose solution with the proteases inhibitors aprotinin (1 mg/ml), leupeptin (1 mg/mml) and PMSF (100 mM). The suspension was submitted to three cycles of a 5 s sonication (probe) at 10 watts/5 s resting on ice. The cell lysate was centrifuged at 600 g for 5 min. The supernatant was collected and protein concentration was determined as specified below.
Cells were seeded at 5 × 10^5 cells/mL into 6 well plates (1 mL/well) and were allowed to adhere for 24 h. Medium was replaced with fresh medium containing RBM5-177, RBM5-019 or RBM2-37 (5 µM final concentration). After 30 min, medium was removed; cells were washed with 400 µL PBS and harvested with 400 µL Trypsin-EDTA and 600 µL of medium. NC recombinant enzyme, […], MEF5 or microsomes from HeLa T-Rex ACER1-TET-ON and HeLa T-Rex […] activity buffer. Cell pellets were resuspended with 100 µL of H2O and mixed with 750 µL of methanol: chloroform, 2:1. Samples were heated at 48°C overnight and next day, 75 µL of 1 M KOH in methanol were added, followed by 2 h incubation at 37°C. Afterwards, the saponification was neutralised with 75 µL of 1 M acetic acid and solvent was removed using a Speed Vac Savant SPD131 DDA (Thermo Scientific). […]

Assay [2] addresses T1, acid ceramidase (AC). Briefly: AC activity by flow cytometry with RBM5-177/CO-1 in intact cells. Set-up: expressed in transfected cells; host or cells: A375/+Dox and FD/AC (overexpressing AC); A375/-Dox and A549 (endogenous AC). The assay is classed as cell-based. As to the method: Cells were seeded at 1 × 10^5 cells/mL into 6 well plates (1 mL/well) and were allowed to adhere for 24 h. Medium was replaced with fresh medium containing Soclac (5 µM final concentration) and incubated for 1 h. After this time, the medium was replaced with RBM5-177, RBM5-019 or RBM2-37 (5 µM final concentration) +/- Soclac and incubated for 20 min. In the experiments with DM120, the compound, Soclac and RBM5-177 were incubated together for 4 h. After probes incubation, the medium was replaced with fresh medium containing CO-1 (1 µM final concentration), and cells were incubated for 10 min. Then cells were washed 3 times with DMEM for 5 min at 37 °C, and finally washed with 400 µL PBS and harvested with 400 µL Trypsin-EDTA and 600 µL of medium. Pellets were resuspended with 200 µL of PBS and stained cells were analyzed by using a Guava EasyCyte™ flow cytometer (Merck Millipore, Billerica, MA) measuring green fluorescence (488/525 nm). Data analysis was performed using the Multicycle AV program (Phoenix Flow Systems, San Diego, CA).
For orientation: Flow cytometry measures light scatter and fluorescence of single cells or particles in a stream.

Consider `CCCCCCCCCCCCC/C=C/[C@@H](O)[C@H](CO)NC(=O)CCl` [SOCLAC], for which the “inhibition of the formation of RBM5-19 from RBM5-177” value in assay [1] (SOCLAC 5 µM, 1 h, then RBM5-177 5 µM) is given as “totally prevented the formation of RBM5-19 from RBM5-177”. In addition, the “effect on number of fluorescent counts” value in assay [2] (A375 cells, SOCLAC 5 µM 1 h pre-incubation (Fig. 5A, 5D)) is “significantly decreased”. Also, the “effect on number of labelled cells” value in assay [2] (A549 cell line, SOCLAC 5 µM 1 h (Fig. 5B, 5E)) was “significantly decreasing the number of labelled cells”; in assay [2] (FD/AC cells, SOCLAC 5 µM 1 h preincubation (Fig. 5C)), “reduced down to FD levels”.

For the compound `CCCCCCCC(=O)N[C@@H](C)[C@H](O)CCCCCCCCCCCCN=[N+]=[N-]` [RBM5-177, N-((2S,3R)-15-azido-3-hydroxypentadecan-2-yl)octanamide], the “RBM5-19 formation (hydrolysis as substrate)” value in assay [1] (RBM5-177 5 µM) was “transformed into the free amine only by AC”. Also, in assay [2] (FD/AC cells versus AC deficient FD cells, RBM5-177 5 µM 4 h, CO-1), the “increase in the number of fluorescent counts over FD” value amounted to 7 fold.
